# Laboratory results taken from article PMC5730592, “Parallelogram based approach for in vivo dose estimation of genotoxic metabolites in humans with relevance to reduction of animal experiments” (Scientific Reports, 2017).
# Values joined by “and” are separate entries in the source; they are usually repeats but may differ in a detail not shown here. Equal entries are not always repeated. Where two headings read alike, the source gives them in different places.
# What was measured:
# [1] = Parallelogram approach estimation of AUC-GA in human; details: predicted ratio × measured human AUC-AA
# Source text: (§1) The parallelogram approach representing inter-species comparison of in vivo dose and the use of in vitro data is shown in Fig. 1 for the metabolic transformation of R to RX, which is referred to as the metabolism of AA to GA in the present study. This figure can be formulated to Eq. 1 as described in Methods (cf. Eq. 5), where the superscripts H and R represent the corresponding AUC or EE in human and rat, respectively.1 AUC^H−RX/AUC^R−RX=EE^H−R→RX/EE^H−RXel/EE^R−R→RX/EE^R−RXel×AUC^H−R/AUC^R−R
# (§2) The in vitro data on enzyme kinetics from human and rat (Table 1), and the in vivo data on AUC of AA and of GA in rat (Table 2) were used to calculate the predictive value of AUC-GA per AUC-AA in human, according to the parallelogram approach (cf. Methods, Eq. 5). This was calculated to 0.087 (Table 3). […] It was observed that the AUC-GA in human and rat predicted by the parallelogram approach and from measured Hb adduct levels, respectively, differed with about a factor of 3 (cf. Tables 2 and 3). This difference is within the variability range of AUC-GA for respective species calculated from different in vivo studies. […]
# in vitro = details: for Vmax (SE), GA elimination: GA 2–50 μM, 10 min, pH 7.5, 37 °C, n = 7 × 2; for EE = Vmax/Km, GA elimination / Km: male, pH 7.5
# Method: As the parameters Vmax and Km were determined by the same experimental setup, the enzyme efficiency (EE) for the metabolic reactions is calculated as the ratio of Vmax to Km.
# The metabolic system was similar to that we used in our earlier work[20] and is described in Supplementary information Note 1. […] The mixture was centrifuged (500 × g, 4 min) and supernatant treated as described below.
# The supernatant (300 μL) obtained following centrifugation in the metabolism experiments was added to a cob(I)alamin solution (200 μL) in water. The reaction was continued under argon atmosphere for 20 min, and subsequently a gentle stream of air was passed to oxidize any reduced cobalamin. Analysis of the solution was performed by liquid chromatography tandem mass spectrometry (LC-MS/MS). The MS was operated using electrospray positive-ionization (ESI^+) and quantification performed using multiple reaction monitoring (MRM) mode. Method for preparation of cob(I)alamin solution from hydroxocobalamin and analysis of the generated alkylcobalamins, GA-Cbl from GA and PO-Cbl from PO, were similar to our earlier work[8] and are described under Supplementary information Notes 2–4.
# The area under MRM peaks from GA-Cbl and PO-Cbl were measured with Analyst software version 1.5 from AB Sciex. Using calibration curve obtained for GA using inactivated S9 as matrix, the concentrations of GA in the metabolism studies were determined as described earlier by us[8]. The metabolic data was used to obtain Lineweaver-Burk plot for graphical representation of studied enzyme kinetics. Apparent values for the respective maximum velocity (Vmax) of the enzymatic conversion, the Michaelis constant (Km) and standard error were estimated by nonlinear fitting using the Hill function in Origin version 2015 (OriginLab, Northampton, MA, USA).
# To human or rat liver S9 fraction (150 μL, 1–5 mg proteins) at 4 °C in a 2 mL vial with a screw-tight cap were added aqueous KCl (0.15 M, 300 μL), MgSO4 (80 mM, 150 μL), glucose-6-phosphate (50 mM, 150 μL) and NADP (40 mM, 150 μL), and the volume was made up to 1.5 mL with pH 7.5 phosphate buffer. The mixture was incubated for 5 min at 37 °C prior to the addition of the substrate.
# [2] = cited from earlier work
# [3] = Parallelogram approach estimation of AUC-GA in rat
# Source text: as §1, §2
# [4] = male rat, different AA exposure studies, various methods; cited from earlier work
# [5] = design: method as in PMID 15668111; details: 37 °C; cited from earlier work
smiles,measurement,setting,value
"NC(=O)C1CO1 (racemic) [GA, rac-Glycidamide]",AUC-GA estimated from the parallelogram approach,[1],18 nM·h/μg AA per kg bw and 18^a nM·h/μg AA per kg bw
same,"Vmax (SE), GA elimination",in vitro; Human S9,1.6 (0.7) nmol·mg protein^−1·min^−1
same,"Vmax (SE), GA elimination",in vitro; Rat S9 (male SD),0.26 (0.02) nmol·mg protein^−1·min^−1
same,"EE of elimination of GA, human compared to rat (times faster in human)","in vitro; liver S9, human vs. rat",ca. 1.5 times
same,"EE of oxidative formation of GA, rat compared to human (times faster in rat)","in vitro; liver S9, rat vs. human",ca. 4 times
same,"EE ratio of AA → GA to that of GAel, rat compared to human (times higher in rat)","in vitro; liver S9, rat vs. human",ca. 6 times
same,"EE = Vmax/Km, GA elimination","in vitro; Sprague-Dawley, rat",43 μL·mg protein^−1·min^−1
same,Km,"in vitro; Sprague-Dawley, rat",6 µM
same,"EE = Vmax/Km, GA elimination",in vitro; human,62 μL·mg protein^−1·min^−1
same,Km,in vitro; human,26 µM
same,daily Hb adduct level increment per exposure dose,"[2]; Human, AA-rich food 4 days, 11 μg AA/kg bw, adducts to N-terminal valine",1.02 pmol/g globin per μg AA/kg bw and day
same,AUC-GA,"[2]; Human, ca. 11 μg AA/kg bw and day through food, 4 days, n = 9, from Hb adducts",49 nM·h/μg AA per kg bw and 49 ± 17 nM·h/μg AA per kg bw
same,AUC-GA,"[2]; Humans, ca. 2.5 μg AA/kg bw daily through food, 28 days, n = 9, ref Vikström et al. (2011)",21 nM·h/ μg AA per kg bw
same,AUC-GA,"[2]; Humans, single dose in drinking water 500, 1000 and 3000 µg AA/kg bw, n = 6 males, ref Fennell et al. (2005)",60 nM·h/ μg AA per kg bw
same,AUC-GA estimated from the parallelogram approach,"[3]; Rat, predicted ratio × measured rat AUC-AA",48 nM·h/μg AA per kg bw
same,ratio between species (rat-to-human) of AUC-GA per AUC-AA,[3]; from the parallelogram approach,16
same,range of AUC-GA,[4],13–52 nM·h per μg AA per kg bw
same,half-life of hydrolysis of GA in an aqueous solution,[5],43 h
same,rate of hydrolysis of GA in an aqueous solution,[5],0.016 h⁻¹
